# Reference: patent US12497408B2, “Tetracyclic compounds and methods for the treatment of Zika virus infection” (priority 2021, dated 2025)
# System: ZIKV
# Test: ZIKV reporter virus-based antiviral screening on Huh7 cells
# Format: cell-based, Zika virus
# Details: Zika virus, Huh-7, 48 h, Huh7 cells infected with recombinant luciferase reporter ZIKV (MOI about 0.1), luciferase signal
# How it was run: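 Huh7 cells in 2% FBS assay medium infected at MOI about 0.1 with Renilla or Nano luciferase ZIKV premixed with nine-point compound dilutions, 48 hrs at 37° C. Luciferase signal normalized to DMSO controls as 100%; viability optionally by CellTiter-Glo with Rlu virus.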
row,SMILES,EC50 [nM]
1,"CC[C@@H](C)[C@H](NC(=O)OC)C(=O)N1CCC[C@H]1c1nc(Cl)c(-c2cc3c4c(c2)OCc2cc(-c5[nH]c([C@@H]6CCCN6C(=O)[C@@H](NC(=O)OC)[C@H](C)CC)nc5Cl)cc(c2-4)OC3)[nH]1 [Compound 32, dimethyl ((2S,2′S,3R,3′R)-((2S,2′S)-((5,10-dihydrochromeno[5,4,3-cde]chromene-2,7-diyl)bis(4-chloro-1H-imidazole-5,2-diyl))bis(pyrrolidine-2,1-diyl))bis(3-methyl-1-oxopentane-1,2-diyl))dicarbamate]",1.1
2,"COC[C@H]1CC[C@@H](c2nc(Cl)c(-c3cc4c5c(c3)OCc3cc(-c6[nH]c([C@@H]7CC[C@H](COC)N7C(=O)[C@@H](NC(=O)OC)C(C)C)nc6Cl)cc(c3-5)OC4)[nH]2)N1C(=O)[C@@H](NC(=O)OC)C(C)C [Compound 49, dimethyl ((2S,2′S)-((2R,2′R,5S,5′S)-((5,10-dihydrochromeno[5,4,3-cde]chromene-2,7-diyl)bis(4-chloro-1H-imidazole-5,2-diyl))bis(2-(methoxymethyl)pyrrolidine-5,1-diyl))bis(3-methyl-1-oxobutane-1,2-diyl))dicarbamate]",1.9
3,"CC[C@H](C)[C@H](NC(=O)OC)C(=O)N1[C@@H](C)CC[C@H]1c1nc(Cl)c(-c2cc3c4c(c2)OCc2cc(-c5[nH]c([C@@H]6CC[C@H](C)N6C(=O)[C@@H](NC(=O)OC)[C@@H](C)CC)nc5C(C)C)cc(c2-4)OC3)[nH]1 [Compound 44, methyl ((2S,3S)-1-((2S,5S)-2-(5-(7-(4-chloro-2-((2S,5S)-1-((methoxycarbonyl)-L-isoleucyl)-5-methylpyrrolidin-2-yl)-1H-imidazol-5-yl)-5,10-dihydrochromeno[5,4,3-cde]chromen-2-yl)-4-isopropyl-1H-imidazol-2-yl)-5-methylpyrrolidin-1-yl)-3-methyl-1-oxopentan-2-yl)carbamate]",1.9
4,"CC[C@H](C)[C@H](NC(=O)OC)C(=O)N1CC2(CC2)C[C@@H]1c1nc(Cl)c(-c2cc3c4c(c2)OCc2cc(-c5[nH]c([C@H]6CC7(CC7)CN6C(=O)[C@@H](NC(=O)OC)[C@@H](C)CC)nc5C(C)C)cc(c2-4)OC3)[nH]1 [Compound 78, methyl ((2S,3S)-1-((R)-6-(5-(7-(4-chloro-2-((R)-5-((methoxycarbonyl)-L-isoleucyl)-5-azaspiro[2.4]heptan-6-yl)-1H-imidazol-5-yl)-5,10-dihydrochromeno[5,4,3-cde]chromen-2-yl)-4-isopropyl-1H-imidazol-2-yl)-5-azaspiro[2.4]heptan-5-yl)-3-methyl-1-oxopentan-2-yl)carbamate]",> 1000
5,"COC(=O)N[C@H](C(=O)N1[C@H](c2nc(Cl)c(-c3cc4c5c(c3)OCc3cc(-c6[nH]c([C@@H]7C[C@@H]8CCCC[C@@H]8N7C(=O)[C@@H](NC(=O)OC)C(C)C)nc6Cl)cc(c3-5)OC4)[nH]2)C[C@@H]2CCCC[C@@H]21)C(C)C [Compound 37, dimethyl ((2S,2′S)-((2S,2′S,3aS,3a′S,7aS,7a′S)-((5,10-dihydrochromeno[5,4,3-cde]chromene-2,7-diyl)bis(4-chloro-1H-imidazole-5,2-diyl))bis(octahydro-1H-indole-2,1-diyl))bis(3-methyl-1-oxobutane-1,2-diyl))dicarbamate]",5.7
6,"CC[C@H](C)[C@H](NC(=O)OC)C(=O)N1CCC[C@H]1c1nc(Br)c(-c2cc3c4c(c2)OCc2cc(-c5[nH]c([C@@H]6CCCN6C(=O)[C@@H](NC(=O)OC)[C@@H](C)CC)nc5Br)cc(c2-4)OC3)[nH]1 [Compound 24, dimethyl ((2S,2′S,3S,3′S)-((2S,2′S)-((5,10-dihydrochromeno[5,4,3-cde]chromene-2,7-diyl)bis(4-bromo-1H-imidazole-5,2-diyl))bis(pyrrolidine-2,1-diyl))bis(3-methyl-1-oxopentane-1,2-diyl))dicarbamate]",2.2
